From patent US10245270B2, “Salt of 3-[(3-{[4-(4-morpholinylmethyl)-1H-pyrrol-2-yl]methylene}-2-oxo-2,3-dihydro-1H-indol-5-yl)methyl]-1,3-thiazolidine-2,4-dione, its preparation, and formulations containing it” (LES LABORATOIRES SERVIER, priority 2013, dated 2019)
Like-named read-outs stand apart in the source and are kept apart here.

Experiments:
[1] = Purity and stability under denaturing conditions (HPLC, X-ray diffractogram, DSC); format: physicochemical
Procedure: The compound of formula (II) according to the invention has excellent stability over time even under denaturing conditions: at 25° C./60% relative humidity, at 25° C./90% relative humidity, at 30° C./65% relative humidity, at 40° C./75% relative humidity, or at 50° C., the compound of formula (II) is unchanged after 6 months.
EXAMPLE 2: PURITY AND STABILITY OF 3[(3-{[4-(4-MORPHOLINYLMETHYL)-1H-PYRROL-2-YL]METHYLENE}-2-OXO-2,3-DIHYDRO-1H-INDOL-5-YL)METHYL]-1,3-THIAZOLIDINE-2,4-DIONE METHANESULPHONATE, Z ISOMER, UNDER DENATURING CONDITIONS

cancer cells = conditions: cited from earlier work
[2] = Solubility in water, 24 hours stirring at ambient temperature, HPLC analysis; format: physicochemical; conditions: for solubility at 24 h: thermodynamic from solid
Procedure: A solution containing 140 mg of the compound obtained in Example 1 in 7 ml of water is stirred for 24 hours at ambient temperature. After filtration using an Acrodisc GJHP 0.45[…] μm, the solution is analysed by HPLC.

[3] = Constant surface area (intrinsic) dissolution kinetics at pH 2; format: physicochemical; conditions: for dissolution kinetics: pH 2 (0.01N HCl), ambient temperature, pellets of 0.075 cm^2, 100 rpm
Procedure: The constant surface area dissolution kinetics (or intrinsic dissolution kinetics) of the product of Example 1 were determined at ambient temperature at pH 2 (10 mL of 0.01N HCl) using a μDiss dissolution apparatus and pellets of 0.075 cm^2, prepared by compression at 90 bars, for 2 minutes at a stirring speed of 100 rpm.
The product of Example 1 dissolves with kinetics of 23 μg·s^−1·cm^−2+/−11%. By way of comparison, the dissolution kinetics of the corresponding hydrochloride are 1.6 μg·s^−1·cm^−2. The methanesulphonate therefore dissolves about 14 times faster than the corresponding hydrochloride.

[4] = After 6 months, 25° C./60% relative humidity
[5] = After 6 months, 25° C./90% relative humidity
[6] = After 6 months, 30° C./65% relative humidity
[7] = After 6 months, 40° C./75% relative humidity

Structure (SMILES): CS(=O)(=O)O.O=C1Nc2ccc(CN3C(=O)CSC3=O)cc2C1=Cc1cc(CN2CCOCC2)c[nH]1 [compound of formula (II), 3-[(3-{[4-(4-morpholinylmethyl)-1H-pyrrol-2-yl]methylene}-2-oxo-2,3-dihydro-1H-indol-5-yl)methyl]-1,3-thiazolidine-2,4-dione methanesulphonate]
- stability over time under denaturing conditions ([1]; after 6 months at 25° C./60% RH, 25° C./90% RH, 30° C./65% RH, 40° C./75% RH or 50° C.): unchanged

Structure (SMILES): O=C1Nc2ccc(CN3C(=O)CSC3=O)cc2C1=Cc1cc(CN2CCOCC2)c[nH]1 [3-[(3-{[4-(4-morpholinylmethyl)-1H-pyrrol-2-yl]methylene}-2-oxo-2,3-dihydro-1H-indol-5-yl)methyl]-1,3-thiazolidine-2,4-dione]
- ability to inhibit the migration of cancer cells (cancer cells): has the ability to inhibit the migration of cancer cells

Structure (SMILES): Cl.O=C1Nc2ccc(CN3C(=O)CSC3=O)cc2/C1=C/c1cc(CN2CCOCC2)c[nH]1 (single isomer, unassigned) [hydrochloride of 3-[(3-([4-{(4-morpholinylmethyl)-1H-pyrrol-2-yl]methylene}-2-oxo-2,3-dihydro-1H-indol-5-yl)methyl]-1,3-thiazolidine-2,4-dione, Z isomer, reference compound]
- solubility ([2]; as the salt): 4.3 mg/mL
- solubility in terms of the base equivalent ([2]; base equivalent): 4 mg/mL
- dissolution kinetics [3]: 1.6 μg·s^−1·cm^−2

Structure (SMILES): O=C1Nc2ccc(CN3C(=O)CSC3=O)cc2C1=Cc1cc(CN2CCOCC2)c[nH]1 [Example 1, 3-[(3-{[4-(4-MORPHOLINYLMETHYL)-1H-PYRROL-2-YL]METHYLENE}-2-OXO-2,3-DIHYDRO-1H-INDOL-5-YL)METHYL]-1,3-THIAZOLIDINE-2,4-DIONE METHANESULPHONATE, Z ISOMER]
- solubility at 24 h ([2]; as the salt, read-out: solubility): 14.7 mg/mL
- solubility at 24 h ([2]; base equivalent, read-out: solubility in terms of the base equivalent): 12.1 mg/mL
- dissolution kinetics [3]: 23 μg·s^−1·cm^−2
- dissolution rate relative to the corresponding hydrochloride ([3]; pH 2, ambient temperature): about 14 times faster
- DSC (thermogram) [1, 4]: unchanged
- HPLC (% Example 1) [1, 4]: 99.8%
- XR (diffractogram) [1, 4]: unchanged
- DSC (thermogram) [1, 5]: unchanged
- HPLC (% Example 1) [1, 5]: 99.8%
- XR (diffractogram) [1, 5]: unchanged
- DSC (thermogram) [1, 6]: unchanged
- HPLC (% Example 1) [1, 6]: 99.8%
- XR (diffractogram) [1, 6]: unchanged
- DSC (thermogram) [1, 7]: unchanged
- HPLC (% Example 1) [1, 7]: 99.8%
- XR (diffractogram) [1, 7]: unchanged
- DSC (thermogram) ([1]; After 6 months, 50° C.): unchanged
- HPLC (% Example 1) ([1]; After 6 months, 50° C.): 99.8%
- XR (diffractogram) ([1]; After 6 months, 50° C.): unchanged
- HPLC (% Example 1) ([1]; t = 0): 99.8%
